This is an account of results in patent US8685977B2, “Chemical compounds” (Pfizer Limited, priority 2010, dated 2014).

Molecules are shown by their SMILES.

The target of this experiment is T1, Nav1.7 (or SCN9A) channel (Homo sapiens, UniProt Q15858).
T1 construct: expressed in transfected cells
T1 sequence (Q15858 whole entry): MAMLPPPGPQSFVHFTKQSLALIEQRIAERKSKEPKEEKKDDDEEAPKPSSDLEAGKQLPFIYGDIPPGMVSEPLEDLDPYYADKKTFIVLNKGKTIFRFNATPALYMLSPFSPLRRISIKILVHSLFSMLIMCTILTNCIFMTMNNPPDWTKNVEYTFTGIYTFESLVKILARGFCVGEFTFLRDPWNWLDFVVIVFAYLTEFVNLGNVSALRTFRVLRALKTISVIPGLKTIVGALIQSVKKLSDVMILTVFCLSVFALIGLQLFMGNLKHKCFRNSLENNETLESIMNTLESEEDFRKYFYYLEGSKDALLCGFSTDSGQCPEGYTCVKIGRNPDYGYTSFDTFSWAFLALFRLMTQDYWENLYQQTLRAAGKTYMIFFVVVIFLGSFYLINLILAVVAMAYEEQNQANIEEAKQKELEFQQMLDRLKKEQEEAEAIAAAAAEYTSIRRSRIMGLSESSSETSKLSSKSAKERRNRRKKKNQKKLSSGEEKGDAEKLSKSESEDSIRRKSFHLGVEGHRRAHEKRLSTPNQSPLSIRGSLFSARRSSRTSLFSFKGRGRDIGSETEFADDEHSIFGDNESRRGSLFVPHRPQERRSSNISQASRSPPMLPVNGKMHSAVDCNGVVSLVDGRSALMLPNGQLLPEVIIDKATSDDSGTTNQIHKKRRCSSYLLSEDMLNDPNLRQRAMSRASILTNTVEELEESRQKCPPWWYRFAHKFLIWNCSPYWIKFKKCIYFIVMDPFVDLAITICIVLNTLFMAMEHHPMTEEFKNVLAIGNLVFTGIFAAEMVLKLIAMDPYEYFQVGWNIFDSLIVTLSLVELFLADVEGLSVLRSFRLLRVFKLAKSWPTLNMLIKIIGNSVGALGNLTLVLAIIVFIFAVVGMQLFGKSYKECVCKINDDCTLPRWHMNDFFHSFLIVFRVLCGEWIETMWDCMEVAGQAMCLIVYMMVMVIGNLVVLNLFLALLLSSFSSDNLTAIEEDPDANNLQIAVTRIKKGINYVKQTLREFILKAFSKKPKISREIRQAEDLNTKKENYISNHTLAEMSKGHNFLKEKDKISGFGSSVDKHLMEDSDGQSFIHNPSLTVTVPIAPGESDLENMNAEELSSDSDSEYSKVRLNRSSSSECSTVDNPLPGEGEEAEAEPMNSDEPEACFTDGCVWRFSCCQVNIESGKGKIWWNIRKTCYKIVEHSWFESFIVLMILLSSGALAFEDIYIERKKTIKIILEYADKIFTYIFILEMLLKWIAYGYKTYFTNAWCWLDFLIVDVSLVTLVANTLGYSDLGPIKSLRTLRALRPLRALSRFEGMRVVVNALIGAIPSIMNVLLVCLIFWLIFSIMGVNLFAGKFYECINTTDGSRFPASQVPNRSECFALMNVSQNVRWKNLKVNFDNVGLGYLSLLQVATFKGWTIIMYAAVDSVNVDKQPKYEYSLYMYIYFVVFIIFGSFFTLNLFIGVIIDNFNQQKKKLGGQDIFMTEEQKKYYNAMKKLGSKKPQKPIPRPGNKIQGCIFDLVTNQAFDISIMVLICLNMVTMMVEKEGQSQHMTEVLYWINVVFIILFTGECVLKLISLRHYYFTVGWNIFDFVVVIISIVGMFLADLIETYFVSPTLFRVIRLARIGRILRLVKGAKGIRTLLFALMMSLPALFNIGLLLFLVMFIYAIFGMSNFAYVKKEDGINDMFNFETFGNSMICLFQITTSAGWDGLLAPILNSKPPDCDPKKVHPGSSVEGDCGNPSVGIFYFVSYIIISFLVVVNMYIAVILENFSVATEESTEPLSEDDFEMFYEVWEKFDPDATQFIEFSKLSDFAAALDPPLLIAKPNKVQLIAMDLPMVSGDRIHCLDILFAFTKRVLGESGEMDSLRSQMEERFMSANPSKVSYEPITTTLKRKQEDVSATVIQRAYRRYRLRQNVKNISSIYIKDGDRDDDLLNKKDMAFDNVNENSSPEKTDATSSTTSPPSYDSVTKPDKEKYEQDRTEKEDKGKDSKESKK
In words: Nav1.7 PatchXpress 7000 automated electrophysiology assay (HEK cells stably expressing hSCN9A). Format: cell-based. As to conditions: voltage-clamped at V1/2 of inactivation, read-out: Nav1.7 EIC50. The method, then: The ability of the compounds of formula (I) to block the Nav1.7 (or SCN9A) channel was measured using the assays described below.
Human Embryonic Kidney (HEK) cells were transfected with an hSCN9A construct using lipofectamine reagent (Invitrogen), using standard techniques. Cells stably expressing the hSCN9A constructs were identified by their resistance to G-418 (400 μg/ml). Clones were screened for expression using the whole-cell voltage-clamp technique.
HEK cells stably transfected with hSCN9A were maintained in DMEM medium supplemented with 10% heat-inactivated fetal bovine serum and 400 μg/ml G-418 in an incubator at 37° C. with a humidified atmosphere of 10% CO2. For HTS, cells were harvested from flasks by trypsinization and replated in an appropriate multi-well plate (typically 96 or 384 wells/plate) such that confluence would be achieved within 24 hours of plating. For electrophysiological studies, cells were removed from the culture flask by brief trypsinization and re-plated at low density onto glass cover slips. Cells were typically used for electrophysiological experiments within 24 to 72 hours after plating.
Cover slips containing HEK cells expressing hSCN9A were placed in a bath on the stage of an inverted microscope and perfused (approximately 1 ml/minutes) with extracellular solution of the following composition: 138 mM NaCl, 2 mM CaCl2, 5.4 mM KCl, 1 mM MgCl2, 10 mM glucose, and 10 mM HEPES, pH 7.4, with NaOH. […] The osmolarity of the extracellular and intracellular solutions was 300 mOsm/kg and 295 mOsm/kg, respectively. All recordings were made at room temperature (22-24° C.) using AXOPATCH 200B amplifiers and PCLAMP software (Axon Instruments, Burlingame, Calif.).
HEK cells stably transfected with hSCN9A were viewed under Hoffman contrast optics and placed in front of an array of flow pipes emitting either control or compound-containing extracellular solutions. All compounds were dissolved in dimethyl sulfoxide to make 10 mM stock solutions, which were then diluted into extracellular solution to attain the final concentrations desired. […] The voltage-dependence of inactivation was determined by applying a series of depolarizing prepulses (8 sec long in 10 mV increments) from a negative holding potential. The voltage was then immediately stepped to 0 mV to assess the magnitude of the sodium current. Currents elicited at 0 mV were plotted as a function of prepulse potential to allow estimation of the voltage at which 50% of the channels were inactivated (midpoint of inactivation or V1/2). Compounds were tested for their ability to inhibit hSCN9A sodium channels by activating the channel with a 20 msec voltage step to 0 mV following an 8 second conditioning prepulse to the empirically determined V1/2. Compound effect (% inhibition) was determined by difference in current amplitude before and after application of test compounds. For ease of comparison, “estimated IC-50” (EIC50) values were calculated from single point electrophysiology data by the following equation, (tested concentration, uM)×(100-% inhibition/% inhibition). Inhibition values <20% and >80% were excluded from the calculation.
Electrophysiological assays were conducted with PatchXpress 7000 hardware and associated software (Molecular Devices Corp). All assay buffers and solutions were identical to those used in conventional whole-cell voltage clamp experiments described above. hSCN9A cells were grown as above to 50%-80% confluency and harvested by trypsinization. Trypsinized cells were washed and resuspended in extracellular buffer at a concentration of 1×10^6 cells/ml. The onboard liquid handling facility of the PatchXpress was used for dispensing cells and application of test compounds. Determination of the voltage midpoint of inactivation was as described for conventional whole-cell recordings. Cells were then voltage-clamped to the empirically determined V1/2 and current was activated by a 20 msec voltage step to 0 mV. […]
For `COc1ccc(Cl)c(Oc2cc(F)c(C(=O)NS(C)(=O)=O)cc2F)c1` [Example 109, 4-(2-chloro-5-methoxyphenoxy)-2,5-difluoro-N-(methylsulfonyl)benzamide], the IC50 is above 1000 nM.

`CS(=O)(=O)NC(=O)c1c(F)cc(Oc2ccc(Cl)c(C(F)(F)F)c2)c(F)c1F` [Example 32, 4-(4-chloro-3-(trifluoromethyl)phenoxy)-2,3,6-trifluoro-N-(methylsulfonyl)benzamide]: the IC50 is above 1000 nM.

In the case of `CS(=O)(=O)NC(=O)c1ccc(Oc2ccc3ccccc3c2)c(Cl)c1` [Example 246, 3-chloro-N-(methylsulfonyl)-4-(2-naphthyloxy)benzamide], the IC50 was 490 nM.

In the case of `CS(=O)(=O)NC(=O)c1cc(Cl)c(Oc2ccc(Cl)c(OC(F)F)c2)cc1F` [Example 48, 5-chloro-4-[4-chloro-3-(difluoromethoxy)phenoxy]-2-fluoro-N-(methylsulfonyl)benzamide], the IC50 is 210 nM.

`CS(=O)(=O)NC(=O)c1cc(Cl)c(Oc2ccc(Cl)cc2OC(F)F)cc1F` [Example 11, 5-chloro-4-[4-chloro-2-(difluoromethoxy)phenoxy]-2-fluoro-N-(methylsulfonyl)benzamide]: the IC50 was found to be 430 nM.

Take `CS(=O)(=O)NC(=O)c1ccc(Oc2ccc(Cl)c(C(F)(F)F)c2)cc1Cl` [Example 43, 2-chloro-4-[4-chloro-3-(trifluoromethyl)phenoxy]-N-(methylsulfonyl)benzamide]: the IC50 came to 5800 nM.

Turning to `CS(=O)(=O)NC(=O)c1ccc(Oc2cc(F)ccc2F)cc1` [Example 166, 4-(2,5-difluorophenoxy)-N-(methylsulfonyl)benzamide], the IC50 amounted to 17000 nM.

Consider `Cc1ccc(F)cc1Oc1ccc(C(=O)NS(C)(=O)=O)cc1` [Example 179, 4-(5-fluoro-2-methylphenoxy)-N-(methylsulfonyl)benzamide], for which the IC50 is above 10000 nM.

As for `CS(=O)(=O)NC(=O)c1cc(Cl)c(Oc2ccc3ccccc3c2)cc1F` [Example 285, 5-chloro-2-fluoro-N-(methylsulfonyl)-4-(2-naphthyloxy)benzamide], the IC50 worked out at 57 nM.

Take `COc1ccc(Oc2ccc(C(=O)NS(C)(=O)=O)cc2Cl)cc1` [Example 257, 3-chloro-4-(4-methoxyphenoxy)-N-(methylsulfonyl)benzamide]: the IC50 worked out at 1100 nM.

As to `CS(=O)(=O)NC(=O)c1ccc(Oc2ccc(OCc3ccccc3)cc2)cc1` [Example 178, 4-[4-(benzyloxy)phenoxy]-N-(methylsulfonyl)benzamide], the IC50 was 1300 nM.

For `CS(=O)(=O)NC(=O)c1cc(Cl)c(Oc2ccc(Cl)cc2)cc1F` [Example 295, 5-chloro-4-(4-chlorophenoxy)-2-fluoro-N-(methylsulfonyl)benzamide], the IC50 is 97 nM.

Turning to `Cc1cc(Oc2ccc(C(=O)NS(C)(=O)=O)cc2F)ccc1F` [Example 218, 3-fluoro-4-(4-fluoro-3-methylphenoxy)-N-(methylsulfonyl)benzamide], the IC50 was determined as 2800 nM.

`Cc1cc(C(=O)NS(C)(=O)=O)c(F)cc1Oc1ccc(Cl)c(C(F)(F)F)c1` [Example 8, 4-[4-chloro-3-(trifluoromethyl)phenoxy]-2-fluoro-5-methyl-N-(methylsulfonyl)benzamide]: the IC50 was determined as 35 nM.

Consider `CC(C)Oc1ccccc1Oc1cc(F)c(C(=O)NS(C)(=O)=O)cc1F` [Example 90, 2,5-difluoro-4-(2-isopropoxyphenoxy)-N-(methylsulfonyl)benzamide], for which the IC50 is above 300 nM.

As to `CS(=O)(=O)NC(=O)c1cc(F)c(Oc2cc(C(F)(F)F)ccc2Cl)cc1F` [Example 121, 4-[2-chloro-5-(trifluoromethyl)phenoxy]-2,5-difluoro-N-(methylsulfonyl)benzamide], the IC50 was above 1000 nM.

As to `Cc1ccc(C)c(Oc2ccc(C(=O)NS(C)(=O)=O)cc2)c1` [Example 162, 4-(2,5-dimethylphenoxy)-N-(methylsulfonyl)benzamide], the IC50 worked out at 28000 nM.

On to `Cc1cc(Oc2cc(F)c(C(=O)NS(C)(=O)=O)cc2F)cc(C)c1C#N` [Example 112, 4-(4-cyano-3,5-dimethylphenoxy)-2,5-difluoro-N-(methylsulfonyl)benzamide], for which the IC50 was above 3000 nM.

Consider `CS(=O)(=O)NC(=O)c1ccc(Oc2ccc(Cl)c(C(F)(F)F)c2)cc1F` [Example 14, 4-(4-chloro-3-(trifluoromethyl)phenoxy)-2-fluoro-N-(methylsulfonyl)benzamide], for which the IC50 worked out at 850 nM.

With `CS(=O)(=O)NC(=O)c1ccc(Oc2ccc(Cl)c(C(F)(F)F)c2)c(Cl)c1F` [Example 320, 3-chloro-4-(4-chloro-3-(trifluoromethyl)phenoxy)-2-fluoro-N-(methylsulfonyl)benzamide], the IC50 is 1800 nM.

For `CS(=O)(=O)NC(=O)c1ccc(Oc2cccc(-c3ccccc3)c2)c(C#N)c1` [Example 272, 4-(biphenyl-3-yloxy)-3-cyano-N-(methylsulfonyl)benzamide], the IC50 was 710 nM.

With `CS(=O)(=O)NC(=O)c1ccc(Oc2ccc(Cl)cc2)c(F)c1` [Example 229, 4-(4-chlorophenoxy)-3-fluoro-N-(methylsulfonyl)benzamide], the IC50 is 1200 nM.

On to `CS(=O)(=O)NC(=O)c1cc(F)c(Oc2cc(Cl)ccc2Cl)cc1F` [Example 105, 4-(2,5-dichlorophenoxy)-2,5-difluoro-N-(methylsulfonyl)benzamide], for which the IC50 was above 3000 nM.

Regarding `Cc1ccc(Oc2ccc(C(=O)NS(C)(=O)=O)cc2F)cc1` [Example 217, 3-fluoro-4-(4-methylphenoxy)-N-(methylsulfonyl)benzamide], the IC50 was 4200 nM.

Regarding `CS(=O)(=O)NC(=O)c1ccc(Oc2cccc3ccccc23)c(Cl)c1` [Example 258, 3-chloro-N-(methylsulfonyl)-4-(1-naphthyloxy)benzamide], the IC50 worked out at 2100 nM.

Regarding `CS(=O)(=O)NC(=O)c1ccc(Oc2ccccc2Cl)c(Cl)c1` [Example 248, 3-chloro-4-(2-chlorophenoxy)-N-(methylsulfonyl)benzamide], the IC50 was 1700 nM.

With `Cc1ccc(C)c(Oc2cc(F)c(C(=O)NS(C)(=O)=O)cc2F)c1` [Example 127, 4-(2,5-dimethylphenoxy)-2,5-difluoro-N-(methylsulfonyl)benzamide], the IC50 is above 3000 nM.

`CS(=O)(=O)NC(=O)c1ccc(Oc2ccc(F)cc2)c(Cl)c1` [Example 41, 3-chloro-4-(4-fluorophenoxy)-N-(methylsulfonyl)benzamide]: the IC50 came to 660 nM.

On to `Cc1cccc(Oc2cc(F)c(C(=O)NS(C)(=O)=O)cc2F)c1` [Example 157, 2,5-difluoro-4-(3-methylphenoxy)-N-(methylsulfonyl)benzamide], for which the IC50 is 6800 nM.

Turning to `CS(=O)(=O)NC(=O)c1ccc(Oc2ccccc2C(F)(F)F)c(Cl)c1` [Example 278, 3-chloro-N-(methylsulfonyl)-4-[2-(trifluoromethyl)phenoxy]benzamide], the IC50 stood at 6600 nM.

Regarding `Cc1cc(Oc2cc(F)c(C(=O)NS(C)(=O)=O)cc2F)ccc1F` [Example 145, 2,5-difluoro-4-(4-fluoro-3-methylphenoxy)-N-(methylsulfonyl)benzamide], the IC50 was 1200 nM.

For `O=C(NS(=O)(=O)c1ccccc1)c1cc(F)c(Oc2ccc(Cl)c(C(F)(F)F)c2)cc1F` [Example 57, 4-[4-chloro-3-(trifluoromethyl)phenoxy]-2,5-difluoro-N-(phenylsulfonyl)benzamide], the IC50 stood at 920 nM.

For the compound `O=C(NS(=O)(=O)C1CC1)c1ccc(Oc2ccc(Cl)cc2)cc1` [Example 26, 4-(4-chlorophenoxy)-N-(cyclopropylsulfonyl)benzamide], the IC50 turned out to be 430 nM.

For the compound `CS(=O)(=O)NC(=O)c1cc(F)c(Oc2c(F)cccc2Cl)cc1F` [Example 91, 4-(2-chloro-6-fluorophenoxy)-2,5-difluoro-N-(methylsulfonyl)benzamide], the IC50 was above 3000 nM.
